From publication PMC11191402, “High-Affinity NIR-Fluorescent Inhibitors for Tumor Imaging via Carbonic Anhydrase IX” (Bioconjugate Chemistry, 2024) come the findings set out here.

Molecules are shown by their SMILES. pKd: −log10 of the molar value. Several values for one entry are separate records, joined by “and”; a condition that tells them apart may be missing. Identical values can stand only once.

The target of one data set is T1, human recombinant CAII (Homo sapiens, UniProt P00918).
T1 construct: made in house; host or cells: bacterial expression system
In words: Fluorescence-based thermal shift assay (FTSA), CAII. The format is binding. The following applies: 37 °C, pH 7.0. On the procedure: (§1) The binding affinities of the four NIR-fluorescent compounds to 12 catalytically active recombinant CA isozymes were determined by the fluorescence-based thermal shift assay (FTSA), and the dissociation constants (Kd’s) at physiological pH (pH 7.0) and 37 °C are listed in Table 1.
(§2) All 12 catalytically active human CA isozymes were prepared recombinantly as previously described. Most isozymes were truncated, and only the catalytic domains of the proteins were produced.[9],[56] All isozymes were expressed in a bacterial expression system except that CAIX was expressed in mammalian cells. The proteins were chromatographically purified via immobilized metal affinity chromatography, ion-exchange, or p-aminomethylbenzenesulfonamide-sepharose affinity chromatography. Protein purity was confirmed by SDS-PAGE, and MW was confirmed by mass spectrometry with 1 Da precision, as predicted from theoretical protein sequence.
(§3) The fluorescence-based thermal shift assay (FTSA) was used to determine the binding affinity of compounds for all catalytically active CA isozymes. The assay is based on the thermal stabilization of proteins by bound ligands and distinguishes itself in its ability to determine extremely high affinity (picomolar Kd) of compound binding to CAIX. The experiments were performed with a QIAGEN Rotor-Gene Q instrument using either the blue channel (365 ± 20 nm excitation and 460 ± 15 nm emission detection) or the green channel (470 ± 10 nm excitation and 510 ± 5 nm detection). The protein solution, in the absence and presence of various compound concentrations ranging from 3 to 200 μM (2× dilutions), was heated from 25 to 99 °C (heating rate, 1 °C/min). The CA isozyme melting temperature Tm was determined by following the fluorescence of 8-anilino-1-naphthalenesulfonate (ANS) or Glomelt dye. The samples consisted of 5 μM protein (or 10 μM CAIV), different concentrations of the tested compound, and 50 μM ANS or 200× diluted Glomelt in 50 mM sodium phosphate buffer (at pH 7.0) containing 100 mM sodium chloride and 2–4% (v/v) dimethyl sulfoxide. To obtain the dissociation constant (at 37 °C), data analysis was performed, and the curves were fit using the Thermott Web server.[57]

The next data set addresses T2, human recombinant CAIV (Homo sapiens, UniProt P22748).
T2 construct: Most isozymes were truncated, and only the catalytic domains of the proteins were produced; made in house; host or cells: bacterial expression system
In words: Fluorescence-based thermal shift assay (FTSA), CAIV. Type of data set: binding. Particulars: 37 °C, pH 7.0. On the procedure:
as §1, §2, §3

The next data set deals with T3, human recombinant CAXII (Homo sapiens, UniProt O43570).
T3 construct: Most isozymes were truncated, and only the catalytic domains of the proteins were produced; made in house; host or cells: bacterial expression system
As to the kind of experiment: Fluorescence-based thermal shift assay (FTSA), CAXII. Particulars: 37 °C, pH 7.0. Type of data set: binding. How it is done: as §1, §2, §3

In data set [1] the target is T4, CAIX expressed on cell membranes of HeLa cells (Homo sapiens, UniProt Q16790).
T4 construct: an open reading frame for the full-length CAIX protein (1–459 amino acids) without a tag; expressed in transfected cells; host or cells: HeLa cells transfected with pCMV-CAIX (TurboFect), normoxia
As to the kind of experiment: Fluorescence microscopy staining of live HeLa cells. Particulars: for staining of HeLa cells (NIR fluorescence microscopy): 250 nM compound, pCMV-CAIX-transfected cells, normoxia. Type of data set: cell-based. An excerpt:
Live HeLa cell culture was used for visualization of the NIR-fluorescent compound binding to CAIX expressed on cell membranes (Figures 3 and S2). […] Hypoxic conditions were insufficient for CAIX-specific fluorescence detection (Figure S3). Transfected cells expressed 10-fold more CAIX protein than cells grown under hypoxia, as determined by dosing the fluorescein-containing compound GZ19-32. […] We should point out that microphotographs in Figures 3 and S2 were taken at different exposure times to ensure good visualization quality. Nevertheless, all four compounds were suitable for direct visualization of CAIX expressed on transfected cell membranes.
For visualization of CAIX in live cells, HeLa cells were seeded in 12-well plates, and the next day they were transfected with the pCMV-CAIX plasmid to induce CAIX expression under normoxia. The TurboFect Transfection Reagent (Thermo Fisher) was used for this purpose according to manufacturer’s directions. Cells were stained and visualized next day after transfection. Nontransfected cells, grown under normoxia, were used as a control. For the induction of CAIX expression without transfection, cells were cultured under hypoxia for 3 days.
For cell imaging, live cells were incubated with the recombinant monoclonal antibody to CAIX (M75) (Absolute Antibody, #Ab00414–1.1) in the CO2 incubator for 30 min. The antibody stock solution (1 mg/mL) was used at a dilution of 1:150 in FluoroBright (FB)(Thermo Fisher) medium. After washing (3 × 5 min with DMEM in RT, gentle rock), cells were incubated with secondary Alexa Fluor 488 goat antimouse antibodies (2 mg/mL, Thermo Fisher), at a dilution of 1:200 in FB, in a CO2 incubator for 30 min. After washing (3 × 5 min with DMEM in RT and 2 × 1 min with PBS), cells were incubated with NIR-fluorescent inhibitors ([…] in PBS) in a CO2 incubator for 5–8 min. After washing (2 min + 2 × 1 min with PBS), PBS was replaced by FB, and 15 μL of NucBlue Live Cell Stain ReadyProbes reagent (Thermo Fisher) was added per well. After 5 min, cells were observed and photographed using an automated fluorescence microscope EVOS FL Auto (Thermo Fisher).

For the next data set, the target named is T5, human recombinant CAIX (Homo sapiens, UniProt Q16790).
T5 construct: Most isozymes were truncated, and only the catalytic domains of the proteins were produced; made in house; host or cells: mammalian cells
As to the kind of experiment: Fluorescence-based thermal shift assay (FTSA), CAIX. The format is binding. Particulars: 37 °C, pH 7.0. On the procedure: as §1, §2, §3

The next data set has as its target T6, human recombinant CAVA (Homo sapiens, UniProt P35218).
T6 construct: Most isozymes were truncated, and only the catalytic domains of the proteins were produced; made in house; host or cells: bacterial expression system
In words: Fluorescence-based thermal shift assay (FTSA), CAVA. The format is binding. Particulars: 37 °C, pH 7.0. How it is done: as §1, §2, §3

Another data set deals with T7, human recombinant CAIII (Homo sapiens, UniProt P07451).
T7 construct: made in house; host or cells: bacterial expression system
In words: Fluorescence-based thermal shift assay (FTSA), CAIII. The format is binding. The following applies: 37 °C, pH 7.0. On the procedure: as §1, §2, §3

A short description of data set [2]: Absorption, emission and fluorescence quantum yield measurement. The following applies: for λabs: absorption spectrum; for λem (fluorescence maximum): emission spectrum. The format is physicochemical. How it is done: Figure S1. Absorption and emission spectra of NIR inhibitors. GZ22-1 λ abs= 783 nm, λ em= 807
Norm. absorption (arb. units)
Norm. photoluminescence (arb. units)
Norm absorption (arb. units) […]
Table S1. Fluorescence quantum yield comparison of NIR-fluorescent compounds. Compound
concentration was 100 nM in PBS. L a-c – excitation radiation integrals, P b-c – fluorescence
Nr. Compound Excitation La Lb Lc A(1) Pb Pc QY(2)
(1)Sample absorbance . (2)Fluorescence quantum yield: .LPc―(1―A)Pb […]

The next data set concerns the target T8, human recombinant CAVI (Homo sapiens, UniProt P23280).
T8 construct: Most isozymes were truncated, and only the catalytic domains of the proteins were produced; made in house; host or cells: bacterial expression system
In words: Fluorescence-based thermal shift assay (FTSA), CAVI. The format is binding. The following applies: 37 °C, pH 7.0. How it is done:
as §1, §2, §3

Another data set concerns the target T9, human recombinant CAVII (Homo sapiens, UniProt P43166).
T9 construct: made in house; host or cells: bacterial expression system
As to the kind of experiment: Fluorescence-based thermal shift assay (FTSA), CAVII. The format is binding. The following applies: 37 °C, pH 7.0. How it is done: as §1, §2
as §3, with “To obtain the dissociation constant (at 37 °C), data analysis was performed, and the curves were fit using the Thermott Web server.[57]” left out

The target in the next data set is T10, human recombinant CAXIII (Homo sapiens, UniProt Q8N1Q1).
T10 construct: made in house; host or cells: bacterial expression system
In words: Fluorescence-based thermal shift assay (FTSA), CAXIII. Type of data set: binding. Particulars: 37 °C, pH 7.0. On the procedure: as §1, §2
as §3, with “To obtain the dissociation constant (at 37 °C), data analysis was performed, and the curves were fit using the Thermott Web server.[57]” left out

T8 sequence (P23280 21-278 limits assumed): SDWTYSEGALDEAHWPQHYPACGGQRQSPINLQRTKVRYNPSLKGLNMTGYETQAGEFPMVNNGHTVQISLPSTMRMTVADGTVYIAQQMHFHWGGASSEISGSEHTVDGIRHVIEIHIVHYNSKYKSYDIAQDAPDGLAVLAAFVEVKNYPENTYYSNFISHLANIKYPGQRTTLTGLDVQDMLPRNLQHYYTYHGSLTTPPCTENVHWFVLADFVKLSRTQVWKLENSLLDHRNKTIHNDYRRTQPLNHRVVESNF
T3 sequence (O43570 30-289 limits assumed): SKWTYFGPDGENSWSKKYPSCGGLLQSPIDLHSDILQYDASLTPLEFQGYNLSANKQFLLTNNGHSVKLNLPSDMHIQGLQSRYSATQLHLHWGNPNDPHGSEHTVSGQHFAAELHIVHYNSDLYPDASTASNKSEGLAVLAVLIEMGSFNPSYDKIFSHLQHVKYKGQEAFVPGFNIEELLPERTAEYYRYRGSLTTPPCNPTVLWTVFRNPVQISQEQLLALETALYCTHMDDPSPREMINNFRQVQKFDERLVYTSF
T6 sequence (P35218 39-296 limits assumed): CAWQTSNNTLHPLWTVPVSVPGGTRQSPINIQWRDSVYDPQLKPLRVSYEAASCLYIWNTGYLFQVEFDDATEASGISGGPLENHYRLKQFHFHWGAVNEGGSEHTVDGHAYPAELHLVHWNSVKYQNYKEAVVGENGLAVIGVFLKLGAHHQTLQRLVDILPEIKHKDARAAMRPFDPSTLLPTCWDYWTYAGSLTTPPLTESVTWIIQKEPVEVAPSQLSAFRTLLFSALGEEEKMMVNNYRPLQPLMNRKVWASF
T10 sequence (Q8N1Q1 whole entry): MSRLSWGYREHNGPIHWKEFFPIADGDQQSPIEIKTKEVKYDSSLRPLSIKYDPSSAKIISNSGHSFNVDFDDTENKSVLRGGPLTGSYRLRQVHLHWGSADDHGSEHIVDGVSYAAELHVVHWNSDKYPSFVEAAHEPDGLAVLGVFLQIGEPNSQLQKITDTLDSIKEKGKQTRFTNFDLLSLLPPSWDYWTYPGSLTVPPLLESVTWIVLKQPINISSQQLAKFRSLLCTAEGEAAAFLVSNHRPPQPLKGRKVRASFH
T7 sequence (P07451 whole entry): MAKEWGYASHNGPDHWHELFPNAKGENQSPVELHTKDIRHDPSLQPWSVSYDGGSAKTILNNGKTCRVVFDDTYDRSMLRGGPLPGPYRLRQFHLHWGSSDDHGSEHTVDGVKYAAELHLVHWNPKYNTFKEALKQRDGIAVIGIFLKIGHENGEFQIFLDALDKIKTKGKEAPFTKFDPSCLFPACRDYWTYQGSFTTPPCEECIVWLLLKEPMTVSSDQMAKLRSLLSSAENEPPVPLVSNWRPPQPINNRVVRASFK
T2 sequence (P22748 21-285 limits assumed): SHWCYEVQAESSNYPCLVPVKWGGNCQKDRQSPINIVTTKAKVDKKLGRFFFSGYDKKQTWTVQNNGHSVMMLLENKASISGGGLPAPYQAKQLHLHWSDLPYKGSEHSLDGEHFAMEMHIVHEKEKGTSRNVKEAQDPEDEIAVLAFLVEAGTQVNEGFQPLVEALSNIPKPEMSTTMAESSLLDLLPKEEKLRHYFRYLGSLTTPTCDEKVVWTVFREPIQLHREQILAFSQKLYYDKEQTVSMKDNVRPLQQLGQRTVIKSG
T9 sequence (P43166 whole entry): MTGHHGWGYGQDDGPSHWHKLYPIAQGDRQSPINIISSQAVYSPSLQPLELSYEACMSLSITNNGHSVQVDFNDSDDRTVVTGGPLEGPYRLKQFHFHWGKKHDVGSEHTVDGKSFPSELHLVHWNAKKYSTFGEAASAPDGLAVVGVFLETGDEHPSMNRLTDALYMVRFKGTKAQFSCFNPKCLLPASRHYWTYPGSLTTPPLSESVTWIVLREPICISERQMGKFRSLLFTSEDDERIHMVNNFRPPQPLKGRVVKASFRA

In general, pKd refers to −log10 of the Kd, conventionally taken in molar units. `CC1(C)C(/C=C/C2=C(Oc3cccc(CC(=O)NCCCOCCOCCOCCCNC(=O)CCS(=O)(=O)c4c(F)c(F)c(S(N)(=O)=O)c(F)c4NC4CCCCCCC4)c3)C(=C/C=C3\N(CCCCS(=O)(=O)[O-])c4ccccc4C3(C)C)/CCC2)=[N+](CCCCS(=O)(=O)[O-])c2ccccc21.[Na+]` [GZ21-19, Sodium 4-((Z)-2-((E)-2-(2-(3-(20-((2-(Cyclooctylamino)-3,5,6-trifluoro-4-sulfamoylphenyl)sulfonyl)-2,18-dioxo-7,10,13-trioxa-3,17-diazaicosyl)phenoxy)-3-((E)-2-(3,3-dimethyl-1-(4-sulfonatobutyl)-3H-indol-1-ium-2-yl)vinyl)cyclohex-2-en-1-ylidene)ethylidene)-3,3-dimethylindolin-1-yl)butane-1-sulfonate]: the pKd on human recombinant CAII is 6.40; on human recombinant CAIV, 5.70; on human recombinant CAXII it was 7.22; on human recombinant CAIX, 9.70; at human recombinant CAVA, 5.70; at human recombinant CAIII, 4.70. Besides, the pKd at human recombinant CAVI was 6.15. In addition, in data set [1], the “staining of HeLa cells (NIR fluorescence microscopy)” value (“staining of HeLa cells” below) is reported as “stained the membranes of pCMV-CAIX-transfected cells”. The λabs in [2] is listed as 783 nm. Besides, the “λem (fluorescence maximum)” value in data set [2] worked out at 805 nm.
Turning to `CC1(C)C(/C=C/C2=C(Oc3ccc(CCC(=O)NCCOCCOCCOCCOCCOCCOCCOCCOCCOCCOCCOCCNC(=O)CCS(=O)(=O)c4c(F)c(F)c(S(N)(=O)=O)c(F)c4NC4CCCCCCC4)cc3)C(=C/C=C3\N(CCCCS(=O)(=O)[O-])c4ccccc4C3(C)C)/CCC2)=[N+](CCCCS(=O)(=O)[O-])c2ccccc21.[Na+]` [GZ22-4, Sodium 4-((Z)-2-((E)-2-(2-(4-(43-((2-(Cyclooctylamino)-3,5,6-trifluoro-4-sulfamoylphenyl)sulfonyl)-3,41-dioxo-7,10,13,16,19,22,25,28,31,34,37-undecaoxa-4,40-diazatritetracontyl)phenoxy)-3-((E)-2-(3,3-dimethyl-1-(4-sulfonatobutyl)-3H-indol-1-ium-2-yl)vinyl)cyclohex-2-en-1-ylidene)ethylidene)-3,3-dimethylindolin-1-yl)butane-1-sulfonate], the pKd at human recombinant CAVII was 7.40; on human recombinant CAII, 6.70; at human recombinant CAIV, 5.10; on human recombinant CAXII, 7.10; at human recombinant CAIX it was 9.77 and 9.70; at human recombinant CAVA, 5.70. The pKd on human recombinant CAXIII is 8.30; at human recombinant CAIII it was 5.30; at human recombinant CAVI, 6.30. For the same compound, the “staining of HeLa cells” value in [1] is given as “stained the membranes of pCMV-CAIX-transfected cells”. Further, the “fluorescence signal compared to the other compounds at identical exposure conditions” value in data set [1] (250 nM, transfected HeLa, Cy7 filter) is listed as “best fluorescence signal”. Besides, the λabs in [2] is reported as 783 nm. Moreover, the “λem (fluorescence maximum)” value in data set [2] came out at 807 nm.
`CC1(C)C(/C=C/C2=C(NCCCOCCOCCOCCCNC(=O)CCC(=O)NCCS(=O)(=O)c3c(F)c(F)c(S(N)(=O)=O)c(F)c3NC3CCCCCCC3)C(=C/C=C3\N(CCCCS(=O)(=O)[O-])c4ccccc4C3(C)C)/CCC2)=[N+](CCCCS(=O)(=O)[O-])c2ccccc21.[Na+]` [AZ21-6, Sodium 4-((Z)-2-((E)-2-(2-((1-((2-(Cyclooctylamino)-3,5,6-trifluoro-4-sulfamoylphenyl)sulfonyl)-4,7-dioxo-12,15,18-trioxa-3,8-diazahenicosan-21-yl)amino)-3-((E)-2-(3,3-dimethyl-1-(4-sulfonatobutyl)-3H-indol-1-ium-2-yl)vinyl)cyclohex-2-en-1-ylidene)ethylidene)-3,3-dimethylindolin-1-yl)butane-1-sulfonate]: the pKd at human recombinant CAVII is 7.22; at human recombinant CAII, 5.70; on human recombinant CAIV it was 5.10; at human recombinant CAXII it was 7.30; at human recombinant CAIX, 9.52; at human recombinant CAVA it was 5.00. In addition, the results for the pKd on human recombinant CAXIII, on human recombinant CAIII and on human recombinant CAVI were 8.00, 4.52 and 6.00, respectively. Besides, in [1], the “staining of HeLa cells” value is “stained the membranes of pCMV-CAIX-transfected cells”. Further, the “QY (fluorescence quantum yield)” value in data set [2] (100 nM in PBS, excitation 650nm) worked out at 0.43. The compound further registered a λabs in data set [2] of 637 nm.
In the case of `CC1(C)C(/C=C/C2=C(Oc3ccc(CCC(=O)NCCCOCCOCCOCCCNC(=O)CCS(=O)(=O)c4c(F)c(F)c(S(N)(=O)=O)c(F)c4NC4CCCCCCC4)cc3)C(=C/C=C3\N(CCCCS(=O)(=O)[O-])c4ccccc4C3(C)C)/CCC2)=[N+](CCCCS(=O)(=O)[O-])c2ccccc21.[Na+]` [GZ22-1, Sodium 4-((Z)-2-((E)-2-(2-(4-(21-((2-(Cyclooctylamino)-3,5,6-trifluoro-4-sulfamoylphenyl)sulfonyl)-3,19-dioxo-8,11,14-trioxa-4,18-diazahenicosyl)phenoxy)-3-((E)-2-(3,3-dimethyl-1-(4-sulfonatobutyl)-3H-indol-1-ium-2-yl)vinyl)cyclohex-2-en-1-ylidene)ethylidene)-3,3-dimethylindolin-1-yl)butane-1-sulfonate], the pKd on human recombinant CAVII is 7.52; at human recombinant CAII, 7.70; at human recombinant CAIV it was 5.15; at human recombinant CAXII, 6.70; on human recombinant CAIX, 9.52; on human recombinant CAVA, 6.00. Also, the pKd on human recombinant CAXIII was 8.10; at human recombinant CAIII, 4.52; at human recombinant CAVI, 6.15. The “staining of HeLa cells” value in data set [1] is listed as “stained the membranes of pCMV-CAIX-transfected cells”. In data set [2], this compound gave a λabs of 783 nm. Moreover, the “λem (fluorescence maximum)” value in data set [2] is reported as 807 nm.
